One may read the Kd as the free concentration of one partner at which half of the binding sites on the other are occupied at equilibrium, for simple one-to-one binding. Higher therefore signals a looser complex.

Structures are written as SMILES.

One experiment has as its target T1, FLT3 ITD, D835V (Homo sapiens, UniProt P36888, D835V/ITD).
T1 sequence (P36888 27-993 D835V): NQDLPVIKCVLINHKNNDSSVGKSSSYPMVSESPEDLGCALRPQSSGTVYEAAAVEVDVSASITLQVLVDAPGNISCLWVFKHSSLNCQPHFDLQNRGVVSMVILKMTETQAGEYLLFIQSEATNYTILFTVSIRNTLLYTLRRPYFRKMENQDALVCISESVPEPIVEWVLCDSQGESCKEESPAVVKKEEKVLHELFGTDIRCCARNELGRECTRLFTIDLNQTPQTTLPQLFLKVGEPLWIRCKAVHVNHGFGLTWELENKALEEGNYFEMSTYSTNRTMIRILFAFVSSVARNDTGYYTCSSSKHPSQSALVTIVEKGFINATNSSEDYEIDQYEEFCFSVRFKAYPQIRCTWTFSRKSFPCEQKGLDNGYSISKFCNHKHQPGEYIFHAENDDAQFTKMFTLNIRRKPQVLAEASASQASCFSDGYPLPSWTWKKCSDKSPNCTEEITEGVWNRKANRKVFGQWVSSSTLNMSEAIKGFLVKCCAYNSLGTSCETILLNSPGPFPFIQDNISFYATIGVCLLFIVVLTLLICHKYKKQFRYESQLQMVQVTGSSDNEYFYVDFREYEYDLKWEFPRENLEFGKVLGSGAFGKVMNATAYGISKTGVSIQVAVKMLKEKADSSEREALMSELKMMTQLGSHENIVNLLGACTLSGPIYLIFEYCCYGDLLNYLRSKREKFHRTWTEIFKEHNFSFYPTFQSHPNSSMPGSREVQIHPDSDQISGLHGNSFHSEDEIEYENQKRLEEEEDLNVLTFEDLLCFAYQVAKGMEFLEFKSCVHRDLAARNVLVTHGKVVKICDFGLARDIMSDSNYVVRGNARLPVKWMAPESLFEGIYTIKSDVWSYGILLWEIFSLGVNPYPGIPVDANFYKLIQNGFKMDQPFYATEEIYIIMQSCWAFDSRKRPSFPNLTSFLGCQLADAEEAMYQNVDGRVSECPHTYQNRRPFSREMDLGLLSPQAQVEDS
As to the kind of experiment: DiscoverX KINOMEscan active site-directed competition binding, FLT3 ITD, D835V. The following applies: Table 13; no ATP.
From the text: (§1) Kinase binding data were obtained for various exemplary compounds prepared according to Examples 1-8 using the DiscoverX KINOMEscan® active site-directed competition binding site-directed assay protocol described below. […] As a result, the data report thermodynamic interaction affinities (Kd values), rather than IC50 values that are dependent on ATP concentrations. The assay uses a DNA-tagged version of the protein kinase, and an immobilized ligand bound to a solid support. Compounds that directly or indirectly prevent kinase binding to the immobilized ligand reduce the amount of kinase captured on the solid support, which is detected using an ultra-sensitive qPCR method. Affinity constants reported from the assay have been reported to be independent of the immobilized ligand used that is coupled to the solid support (See supplemental information in Fabian, M. A. et. al., (2005) Nat. Biotechnol. 23, 329-336; Wodicka, L. M. et. al., (2010) Chem. Biol. 17, 1241-1249.)
Kinase-tagged T7 phage strains were prepared in an E. coli host derived from the BL21 strain. E. coli were grown to log-phase and infected with T7 phage and incubated with shaking at 32 °C until lysis. The lysates were centrifuged and filtered to remove cell debris. The remaining kinases were produced in HEK-293 cells and subsequently tagged with DNA for qPCR detection. Streptavidin-coated magnetic beads were treated with biotinylated small molecule ligands for 30 minutes at room temperature to generate affinity resins for kinase assays. The liganded beads were blocked with excess biotin and washed with blocking buffer (SeaBlock (Pierce), 1% BSA, 0.05% Tween 20, 1 mM DTT) to remove unbound ligand and to reduce non-specific binding. […] Test compounds were prepared as 111x stocks in 100% DMSO. Kds were determined using an 11-point 3-fold compound dilution series with three DMSO control points. All compounds for Kd measurements are distributed by acoustic transfer (non-contact dispensing) in 100% DMSO. The compounds were then diluted directly into the assays such that the final concentration of DMSO was 0.9%. All reactions were performed in polypropylene 384-well plates. Each was a final volume of 0.02 mL. The assay plates were incubated at room temperature with shaking for 1 hour and the affinity beads were washed with wash buffer (1×PBS, 0.05% Tween 20). The beads were then re-suspended in elution buffer (1×PBS, 0.05% Tween 20, 0.5 μM nonbiotinylated affinity ligand) and incubated at room temperature with shaking for 30 minutes. The kinase concentration in the eluates was measured by qPCR. Binding constants (Kds) were calculated with a standard dose-response curve using the Hill equation. The Hill Slope was set to −1. Curves were fitted using a non-linear least square fit with the Levenberg-Marquardt algorithm.
as §1, with “9-12” for “1-8”
Kinase-tagged T7 phage strains were prepared in an E. coli host derived from the BL21 strain. […]
Turning to `COc1cn2ncc(-c3nc(N[C@H]4CNCC[C@@H]4F)c(C#N)cc3F)c2nc1C1CC1` [Compound 7, 6-(5-cyclopropyl-6-methoxypyrazolo[1,5-a]pyrimidin-3-yl)-5-fluoro-2-(((3S,4S)-4-fluoropiperidin-3-yl)amino)nicotinonitrile], the Kd was below 0.17 nM. `COc1cn2ncc(-c3nc(N[C@H]4CNCC[C@@H]4F)c(C#N)cc3F)c2nc1C(C)(C)O` [Compound 10, 5-fluoro-2-(((3S,4S)-4-fluoropiperidin-3-yl)amino)-6-(5-(2-hydroxypropan-2-yl)-6-methoxypyrazolo[1,5-a]pyrimidin-3-yl)nicotinonitrile] registered a Kd below 0.17 nM. For `COc1cn2ncc(-c3nc(N[C@H]4CNCC[C@@H]4F)c(F)cc3F)c2nc1C(C)(C)O` [Compound 13, 2-(3-(3,5-difluoro-6-(((3S,4S)-4-fluoropiperidin-3-yl)amino)pyridin-2-yl)-6-methoxypyrazolo[1,5-a]pyrimidin-5-yl)propan-2-ol], the Kd was below 0.17 nM.

The same experiment, now with this note: Table 19; no ATP.
Consider `COc1cn2ncc(-c3nc(N[C@H]4CNCC[C@@H]4F)ncc3F)c2nc1C(C)(C)O` [Compound 6a, 2-(3-(5-fluoro-2-(((3S,4S)-4-fluoropiperidin-3-yl)amino)pyrimidin-4-yl)-6-methoxypyrazolo[1,5-a]pyrimidin-5-yl)propan-2-ol], for which the dissociation constant Kd was below 0.17 nM. `COc1cn2ncc(-c3cncc(N[C@H]4CNCC[C@@H]4F)n3)c2nc1C1CC1` [Compound 12a, 6-(5-cyclopropyl-6-methoxypyrazolo[1,5-a]pyrimidin-3-yl)-N-((3S,4S)-4-fluoropiperidin-3-yl)pyrazin-2-amine] had a dissociation constant Kd below 0.17 nM. Consider `COc1cn2ncc(-c3nc(N[C@@H]4CCCNC4)ncc3F)c2nc1C1CC1` [Compound 14a, (R)-4-(5-cyclopropyl-6-methoxypyrazolo[1,5-a]pyrimidin-3-yl)-5-fluoro-N-(piperidin-3-yl)pyrimidin-2-amine], for which the Kd is below 0.17 nM. Consider `COc1cn2ncc(-c3nc(N[C@H]4CNCC[C@@H]4F)ncc3F)c2nc1C1CC1` [Compound 15a, 4-(5-cyclopropyl-6-methoxypyrazolo[1,5-a]pyrimidin-3-yl)-5-fluoro-N-((3S,4S)-4-fluoropiperidin-3-yl)pyrimidin-2-amine], for which the Kd was below 0.17 nM. The compound `COc1cn2ncc(-c3ccnc(N[C@H]4CNCC[C@@H]4F)n3)c2nc1C1CC1` [Compound 7a, 4-(5-cyclopropyl-6-methoxypyrazolo[1,5-a]pyrimidin-3-yl)-N-((3S,4S)-4-fluoropiperidin-3-yl)pyrimidin-2-amine] showed a Kd below 0.17 nM.

For the origin of these results see patent US20260374773A1, “MULTI-CYCLIC IRAK AND FLT3 INHIBITING COMPOUNDS AND USES THEREOF” (CHILDREN'S HOSPITAL MEDICAL CENTER, priority 2022, published 2026).
